# Source: patent US8192962B2, “Processes for detecting toxic substances” (Daikin Industries, Ltd., priority 2001, dated 2012)
# Tested on: Transport facilitation protein genes
# Experiment: DNA chip mRNA expression in yeast, transport facilitation protein genes (Table 5)
# Format: cell-based, Saccharomyces cerevisiae S288C
# How it was run: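 Ratios compare mRNA levels in stressed and control S. cerevisiae. Each toxicant was applied for two hours to log-phase cultures at 25° C. at a sub-lethal, growth-inhibiting level; fluorescent cDNA (Cy3- or Cy5-dUTP) was hybridized to a genome-wide yeast chip for over 12 h at 65° C.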
smiles,measurement,setting,value
"CCCCC[C@H](O)CC(=O)CCc1ccc(O)c(OC)c1 [(13), gingerol]",The level of expressed mRNA in the presence of chemical substance/The level of expressed mRNA in the absence of chemical substance,yeast gene YBL030C,0.5
same,The level of expressed mRNA in the presence of chemical substance/The level of expressed mRNA in the absence of chemical substance,yeast gene YBL099W,0.9
same,The level of expressed mRNA in the presence of chemical substance/The level of expressed mRNA in the absence of chemical substance,yeast gene YBR052C,2.1
same,The level of expressed mRNA in the presence of chemical substance/The level of expressed mRNA in the absence of chemical substance,yeast gene YBR068C,2.2
same,The level of expressed mRNA in the presence of chemical substance/The level of expressed mRNA in the absence of chemical substance,yeast gene YBR127C,0.9
same,The level of expressed mRNA in the presence of chemical substance/The level of expressed mRNA in the absence of chemical substance,yeast gene YBR132C,1.4
same,The level of expressed mRNA in the presence of chemical substance/The level of expressed mRNA in the absence of chemical substance,yeast gene YBR207W,2.2
same,The level of expressed mRNA in the presence of chemical substance/The level of expressed mRNA in the absence of chemical substance,yeast gene YBR291C,1.0
same,The level of expressed mRNA in the presence of chemical substance/The level of expressed mRNA in the absence of chemical substance,yeast gene YBR293W,3.0
same,The level of expressed mRNA in the presence of chemical substance/The level of expressed mRNA in the absence of chemical substance,yeast gene YBR294W,3.1
same,The level of expressed mRNA in the presence of chemical substance/The level of expressed mRNA in the absence of chemical substance,yeast gene YBR295W,1.8
same,The level of expressed mRNA in the presence of chemical substance/The level of expressed mRNA in the absence of chemical substance,yeast gene YBR298C,0.8
same,The level of expressed mRNA in the presence of chemical substance/The level of expressed mRNA in the absence of chemical substance,yeast gene YCL025C,0.5
same,The level of expressed mRNA in the presence of chemical substance/The level of expressed mRNA in the absence of chemical substance,yeast gene YCL038C,1.9
same,The level of expressed mRNA in the presence of chemical substance/The level of expressed mRNA in the absence of chemical substance,yeast gene YCL069W,0.8
same,The level of expressed mRNA in the presence of chemical substance/The level of expressed mRNA in the absence of chemical substance,yeast gene YCR024C-A,0.5
same,The level of expressed mRNA in the presence of chemical substance/The level of expressed mRNA in the absence of chemical substance,yeast gene YCR037C,1.3
same,The level of expressed mRNA in the presence of chemical substance/The level of expressed mRNA in the absence of chemical substance,yeast gene YCR098C,1.4
same,The level of expressed mRNA in the presence of chemical substance/The level of expressed mRNA in the absence of chemical substance,yeast gene YDL128W,1.6
same,The level of expressed mRNA in the presence of chemical substance/The level of expressed mRNA in the absence of chemical substance,yeast gene YDL198C,2.0
same,The level of expressed mRNA in the presence of chemical substance/The level of expressed mRNA in the absence of chemical substance,yeast gene YDL210W,1.2
same,The level of expressed mRNA in the presence of chemical substance/The level of expressed mRNA in the absence of chemical substance,yeast gene YDL245C,2.0
same,The level of expressed mRNA in the presence of chemical substance/The level of expressed mRNA in the absence of chemical substance,yeast gene YDR038C,2.0
same,The level of expressed mRNA in the presence of chemical substance/The level of expressed mRNA in the absence of chemical substance,yeast gene YDR039C,1.8
same,The level of expressed mRNA in the presence of chemical substance/The level of expressed mRNA in the absence of chemical substance,yeast gene YDR086C,0.7
same,The level of expressed mRNA in the presence of chemical substance/The level of expressed mRNA in the absence of chemical substance,yeast gene YDR270W,1.8
same,The level of expressed mRNA in the presence of chemical substance/The level of expressed mRNA in the absence of chemical substance,yeast gene YDR298C,1.2
same,The level of expressed mRNA in the presence of chemical substance/The level of expressed mRNA in the absence of chemical substance,yeast gene YDR342C,0.6
same,The level of expressed mRNA in the presence of chemical substance/The level of expressed mRNA in the absence of chemical substance,yeast gene YDR343C,0.8
same,The level of expressed mRNA in the presence of chemical substance/The level of expressed mRNA in the absence of chemical substance,yeast gene YDR345C,1.2
same,The level of expressed mRNA in the presence of chemical substance/The level of expressed mRNA in the absence of chemical substance,yeast gene YDR387C,1.3
same,The level of expressed mRNA in the presence of chemical substance/The level of expressed mRNA in the absence of chemical substance,yeast gene YEL027W,0.7
same,The level of expressed mRNA in the presence of chemical substance/The level of expressed mRNA in the absence of chemical substance,yeast gene YEL065W,0.8
same,The level of expressed mRNA in the presence of chemical substance/The level of expressed mRNA in the absence of chemical substance,yeast gene YER119C,1.6
same,The level of expressed mRNA in the presence of chemical substance/The level of expressed mRNA in the absence of chemical substance,yeast gene YFL011W,0.8
same,The level of expressed mRNA in the presence of chemical substance/The level of expressed mRNA in the absence of chemical substance,yeast gene YFL041W,1.8
same,The level of expressed mRNA in the presence of chemical substance/The level of expressed mRNA in the absence of chemical substance,yeast gene YFL050C,1.2
same,The level of expressed mRNA in the presence of chemical substance/The level of expressed mRNA in the absence of chemical substance,yeast gene YFL054C,2.3
same,The level of expressed mRNA in the presence of chemical substance/The level of expressed mRNA in the absence of chemical substance,yeast gene YFL055W,1.3
same,The level of expressed mRNA in the presence of chemical substance/The level of expressed mRNA in the absence of chemical substance,yeast gene YGL008C,1.9
same,The level of expressed mRNA in the presence of chemical substance/The level of expressed mRNA in the absence of chemical substance,yeast gene YGL104C,2.0
same,The level of expressed mRNA in the presence of chemical substance/The level of expressed mRNA in the absence of chemical substance,yeast gene YGL167C,1.5
same,The level of expressed mRNA in the presence of chemical substance/The level of expressed mRNA in the absence of chemical substance,yeast gene YGR055W,1.9
same,The level of expressed mRNA in the presence of chemical substance/The level of expressed mRNA in the absence of chemical substance,yeast gene YGR065C,0.8
same,The level of expressed mRNA in the presence of chemical substance/The level of expressed mRNA in the absence of chemical substance,yeast gene YGR082W,0.5
same,The level of expressed mRNA in the presence of chemical substance/The level of expressed mRNA in the absence of chemical substance,yeast gene YGR138C,0.6
same,The level of expressed mRNA in the presence of chemical substance/The level of expressed mRNA in the absence of chemical substance,yeast gene YGR191W,1.0
same,The level of expressed mRNA in the presence of chemical substance/The level of expressed mRNA in the absence of chemical substance,yeast gene YGR197C,2.4
same,The level of expressed mRNA in the presence of chemical substance/The level of expressed mRNA in the absence of chemical substance,yeast gene YGR224W,0.8
same,The level of expressed mRNA in the presence of chemical substance/The level of expressed mRNA in the absence of chemical substance,yeast gene YGR260W,0.5
